# Patent publication US8247557B2, “IAP inhibitors” (Genentech, Inc., priority 2005, dated 2012)
# Molecular target: T1, MLXBIR3SG (Homo sapiens, UniProt Q96CA5, S150G)
# T1 construct: His6 tag (MGSSHHHHHH, followed by linker with LVPRGS thrombin site) (N)
# T1 sequence (Q96CA5 with tags, fused parts or gaps S150G): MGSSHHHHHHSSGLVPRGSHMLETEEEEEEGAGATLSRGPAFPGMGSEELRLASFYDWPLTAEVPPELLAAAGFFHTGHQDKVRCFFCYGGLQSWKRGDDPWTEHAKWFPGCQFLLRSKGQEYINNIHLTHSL
# Assay: Fluorescence Polarization Peptide Binding Assay (competition with AVP-diPhe-FAM probe)
# Settings: MLXBIR3SG at 30 nM, 5 nM AVP-diPhe-FAM probe, Ki determined from IC50 values, unit inferred
# Procedure: In the following experiments was used a chimeric BIR domain referred to as MLXBIR3SG in which 11 of 110 residues correspond to those found in XIAP-BIR3, while the remainder correspond to ML-IAP-BIR. […] The improved caspase-9 inhibition of the chimeric BIR domain MLXBIR3SG has been correlated with increased inhibition of doxorubicin-induced apoptosis when transfected into MCF7 cells.
# Polarization experiments were performed on an Analyst HT 96-384 (Molecular Devices Corp.) according to the procedure of Keating, S. M., Marsters, J, Beresini, M., Ladner, C., Zioncheck, K., Clark, K., Arellano, F., and Bodary., S. (2000) in Proceedings of SPIE: In Vitro Diagnostic Instrumentation (Cohn, G. E., Ed.) pp 128-137, Bellingham, Wash. Samples for fluorescence polarization affinity measurements were prepared by addition of 1:2 serial dilutions starting at a final concentration of 5 μM of MLXBIR3SG in polarization buffer (50 mM Tris [pH 7.2], 120 mM NaCl, 1% bovine globulins 5 mM DTT and 0.05% octylglucoside) to 5-carboxyflourescein-conjugated AVPdi-Phe-NH2 (AVP-diPhe-FAM) at 5 nM final concentration.
# The reactions were read after an incubation time of 10 minutes at room temperature with standard cut-off filters for the fluorescein fluorophore (λex=485 nm; λem=530 nm) in 96-well black HE96 plates (Molecular Devices Corp.). Fluorescence values were plotted as a function of the protein concentration, and the IC50s were obtained by fitting the data to a 4-parameter equation using Kaleidograph software (Synergy software, Reading, Pa.). Competition experiments were performed by addition of the MLXBIR3SG at 30 nM to wells containing 5 nM of the AVP-diPhe-FAM probe as well as 1:3 serial dilutions of antagonist compounds starting at a concentration of 300 μM in the polarization buffer. Samples were read after a 10-minute incubation. Fluorescence polarization values were plotted as a function of the antagonist concentration, and the IC50 values were obtained by fitting the data to a 4-parameter equation using Kaleidograph software (Synergy software, Reading, Pa.). Inhibition constants (Ki) for the antagonists were determined from the IC50 values.
row,Ki,SMILES
1,7870 nM,C[C@@H](NCCO)C(=O)N[C@H](C(=O)N1CCC[C@H]1c1nc2c(-c3ccccc3)nccc2s1)C1CCCCC1 [compound 48]
2,55.6 nM,C[C@H](NCCO)C(=O)N[C@H](C(=O)N1CCC[C@H]1c1nc2c(-c3ccccc3)nccc2s1)c1ccccc1 [compound 54]
3,33.8 nM,CN[C@@H](C)C(=O)N[C@H](C(=O)N1CCC[C@H]1c1nc2c(-c3ccccc3)ncnc2s1)C1CCN(C(=O)COC)CC1 [compound 56]
4,145 nM,C[C@H](NCCO)C(=O)N[C@H](C(=O)N1CCC[C@H]1c1nc2c(-c3ccccc3)ccnc2s1)C1CCCCC1 [compound 60]
